According to PubChem BioAssay (NCI):
“And” between values parts separate entries of the source, which are not always exact repeats. Equal entries are not always repeated.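 Where inhibition never reached the appropriate level, the endpoint shown equals the highest concentration tested. Otherwise, values were interpolated linearly from a five-concentration, 48-hour dose response in 96-well plates. Abbreviation: GI50, concentration required for 50% inhibition of growth. TGI marks complete inhibition of growth.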

Legend:
Assay in all cases: NCI anticancer screen, dose series, 48 h
K-562 leukemia = test system: K-562 leukemia
SK-MEL-2 melanoma = test system: SK-MEL-2 melanoma
HOP-92 NSCLC = test system: HOP-92 NSCLC
LOX IMVI melanoma = test system: LOX IMVI melanoma
PC-3 prostate = test system: PC-3 prostate
OVCAR-5 ovarian = test system: OVCAR-5 ovarian
SF-268 CNS = test system: SF-268 CNS
U251 CNS = test system: U251 CNS
EKVX NSCLC = test system: EKVX NSCLC
T-47D breast = test system: T-47D breast

| Structure (SMILES) | TGI (K-562 leukemia) | TGI (SK-MEL-2 melanoma) | TGI (HOP-92 NSCLC) | TGI (LOX IMVI melanoma) | TGI (PC-3 prostate) | TGI (OVCAR-5 ovarian) | TGI (SF-268 CNS) | TGI (U251 CNS) | TGI (EKVX NSCLC) | TGI (T-47D breast) | GI50 (K-562 leukemia) | GI50 (SK-MEL-2 melanoma) | GI50 (HOP-92 NSCLC) | GI50 (LOX IMVI melanoma) | GI50 (PC-3 prostate) | GI50 (OVCAR-5 ovarian) | GI50 (SF-268 CNS) | GI50 (U251 CNS) | GI50 (EKVX NSCLC) | GI50 (T-47D breast) |
| --- | --- | --- | --- | --- | --- | --- | --- | --- | --- | --- | --- | --- | --- | --- | --- | --- | --- | --- | --- | --- |
| C/C(O)=C(/C=N/C(=S)Nc1ccc(S(N)(=O)=O)cc1)C(=O)Nc1ccccc1C | > 100 µM | > 100 µM | > 100 µM | 48.8 µM | > 100 µM | > 100 µM | > 100 µM | > 100 µM | > 100 µM | > 100 µM | – | – | – | – | – | – | – | – | – | – |
| Cc1ccccc1OCC(O)CN1CCN(c2ccc(Cl)cc2)CC1 (stereo not drawn) | 30.7 µM | 35 µM | 22 µM | 31.3 µM | 25.9 µM | 34.5 µM | 34.3 µM | 33.7 µM | 30.9 µM | 47.3 µM | 10.6 µM | 18.7 µM | 10 µM | 15.3 µM | 11.7 µM | 17.4 µM | 17.4 µM | 18.7 µM | 13.7 µM | 18.5 µM |
| C[C@H]1CC[C@@]2(NC1)O[C@H]1C[C@H]3[C@@H]4CC[C@H]5C[C@@H](O)CC[C@]5(C)[C@H]4CC[C@]3(C)[C@H]1[C@@H]2C | 23 µM and > 100 µM | 23.9 µM and > 100 µM | > 100 µM | 41.8 µM and > 100 µM | 42 µM and > 100 µM | 18.4 µM and > 100 µM | 50 µM and > 100 µM | 33.6 µM | > 100 µM | 50 µM and > 100 µM | 6.87 µM | 10.7 µM | – | 14.4 µM | 12.5 µM | 8.71 µM | 14 µM | 11.9 µM | – | 12.3 µM |
| COc1cccc(-c2c[nH]c3c(N/N=C/c4ccncc4)ncnc23)c1 | > 25 µM | 6.15 µM | 19.2 µM | 6.73 µM | > 25 µM | 17.2 µM | 13.3 µM | 7.94 µM | 24.1 µM | > 15.5 µM | 1 µM | 1.7 µM | 4.96 µM | 1.27 µM | 4.53 µM | 4.93 µM | 3.44 µM | 2.13 µM | 7.06 µM | 3.07 µM |
| COc1cc(C(=O)c2c(-c3ccccc3)oc3c(OC)cccc23)cc(OC)c1OC | > 100 µM | > 84.5 µM | 21.5 µM | > 100 µM | > 100 µM | > 100 µM | > 100 µM | > 100 µM | > 100 µM | > 100 µM | 0.0368 µM | 2.4 µM | 0.108 µM | 0.0536 µM | 0.0557 µM | 0.158 µM | 0.128 µM | 0.0514 µM | 0.0674 µM | 31.8 µM |
| C/C(=N/NC(=S)N1CCCCC1)c1ccccc1O | > 31.6 µM | > 31.6 µM | > 31.6 µM | > 31.6 µM | > 31.6 µM | > 31.6 µM | > 31.6 µM | > 31.6 µM | > 31.6 µM | > 31.6 µM | – | – | – | – | – | – | – | – | – | – |
| COc1cc2c(cc1OC)[C@H](C)N1CCc3cc(OC)c(OC)cc3[C@@H]1C2 | > 100 µM | > 100 µM | > 100 µM | > 100 µM | > 100 µM | > 100 µM | > 100 µM | > 100 µM | > 100 µM | > 100 µM | – | – | – | – | – | – | – | – | – | – |
| Cc1c(C(=O)Nc2ccccc2)sc2ncn(Cc3cccc(Cl)c3)c(=O)c12 | > 100 µM | > 100 µM | 40.5 µM | > 100 µM | 49.6 µM | 94.5 µM | > 100 µM | > 100 µM | > 100 µM | > 100 µM | 4.87 µM | 49.2 µM | 16.5 µM | 57.3 µM | 16.5 µM | 27 µM | 73.2 µM | 34 µM | 30.2 µM | 42.9 µM |
| CSC1=C(N)C(=O)c2[nH]cc(CO)c2C1=N | 0.534 µM | 0.503 µM | 2.3 µM | 0.283 µM | 0.916 µM | 0.326 µM | 0.873 µM | 0.347 µM | 1.22 µM | 0.644 µM | 0.221 µM | 0.211 µM | 0.499 µM | 0.134 µM | 0.212 µM | 0.176 µM | 0.246 µM | 0.181 µM | 0.26 µM | 0.264 µM |
